Laboratory results reported in patent US4740233A, “Substituted 1,2,4-triazolo[1,5-a]-pyrimidine-2-sulfonamides and compositions and methods of controlling undesired vegetation and suppressing the nitrification of ammonium nitrogen in soil” (The Dow Chemical Company, priority 1986, dated 1988).

Legend:
wheat = test: Postemergent control of plant species; type: in vivo, Triticum aestivum; details: Triticum aestivum, post-emergence, 336 h, read-out: percent postemergent control
Outline: (§1)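 Compounds in acetone mixed 1:1 with water containing 0.1% surfactant, sprayed postemergence on greenhouse plants at the 2-4 leaf stage. Growth reduction versus untreated plants of the same species scored after about two weeks.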

sprangletop = test: Control of aquatic plant species (paddy water); type: in vivo, Leptochloa filiformis; details: Leptochloa filiformis, 216 h, nine days, read-out: Percent control; for pest or weed control at 1000 g/ha: 1.0 Kg/Ha
Outline: (§2)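 Plants transplanted at 1-2 inch stage into soil, flooded about 1 inch deep; acetone concentrate of compound injected into paddy water at varied volumes to set concentration. Percent control scored nine days after application.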

[1] = system: annual sugar beet variety (SLC03); test: Plant growth regulator activity, postemergence; type: in vivo; details: Beta vulgaris, post-emergence, 672 h, 4 weeks after spraying; read-out: Bolting Inhibition (postemergence), concentration with observed effect
From the text: Using a regular biennial variety, even a bolting-susceptible variety would require a cold treatment of around 10-16 weeks plus a hormone treatement in conjunction with specific light intensities. Thus, for a screening organism, we selected one which would consistently produce bolting on a regular schedule. The screen is run with an annual sugar beet variety (SLC03) provided by Dr. Richard J. Hecker, Fort Collins, Colo. This variety is an inbred which bolts in the 6- to 8-leaf stage without any need for vernalization. This allows the screen to be run entirely in the greenhouse with all 110 chemical compounds tested on one tray. The sugarbeets are grown in 3×3 inch square pots in a greenhouse sandy loam potting mix. The sugarbeets are sprayed with test compounds when they are 2 to 3 weeks old (2 true leaves). The compounds are dissolved in acetone and diluted with water containing Tween 20 as a wetting agent. The concentration of acetone in the final spray is 20% and the concentration of Tween 20 is 0.05 percent. The plants are examined for the appearance of a bolt 4 weeks after spraying.

velvetleaf = test: Preemergent control of plant species; type: in vivo, Abutilon theophrasti; details: Abutilon theophrasti, pre-emergence, 336 h; 0.25 lb/acre; read-out: percent preemergent control
Outline: (§3)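 Seeds sown in agricultural soil in greenhouse beds, then aqueous-emulsion compositions applied uniformly to the bed surface at listed rates. Beds kept two weeks under greenhouse growth conditions with watering. Control expressed as growth reduction versus water-treated beds of the same species.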

sugar beet = test: Preemergent control of plant species; type: in vivo, Beta saccharifera; details: Beta vulgaris, pre-emergence, 336 h; 0.25 lb/acre; read-out: percent preemergent control
Outline: as §3

[2] = system: nitrification of ammonium nitrogen; test: Suppression of nitrification of ammonium nitrogen in soil; details: 27° C.
Outline: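 Soil (20 g) moistened to its 1/3 bar tension value, mixed with test chemical and incubated sealed for two weeks at 27° C. Nitrate extracted with ammonium sulfate solution and measured by nitrate-specific ion electrode; value given as % NH4-N remaining.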

rice = test: Control of aquatic plant species (paddy water); type: in vivo, Oryza sativa; details: Oryza sativa, 216 h, nine days, read-out: Percent control; for pest or weed control at 1000 g/ha: 1.0 Kg/Ha
Outline: as §2

corn = test: Postemergent control of plant species; type: in vivo, Zea mays; details: Zea mays, post-emergence, 336 h, read-out: percent postemergent control
Outline: as §1

barnyardgrass = test: Control of aquatic plant species (paddy water); type: in vivo, Echinochloa crusgalli; details: Echinochloa crus-galli, 216 h, nine days, read-out: Percent control; for pest or weed control at 1000 g/ha: 1.0 Kg/Ha
Method: In testing for such utility, the plant species to be tested were transplanted into 16 oz. containers into about 2 inches of soil when they were in the 1-2 inch stage and then flooded to a depth of about 1 inch. An acetone concentrate of the chemical to be tested was then injected into the paddy water, the volume injected being varied as desired to provide the desired concentration. Percent control was evaluated nine days after application.

wild oats = test: Preemergent control of plant species; type: in vivo; details: Avena fatua, pre-emergence, 336 h; 0.25 lb/acre; read-out: percent preemergent control
Outline: as §3

soybean = test: Postemergent control of plant species; type: in vivo, Glycine max.; details: Glycine max, post-emergence, 336 h, read-out: percent postemergent control
Outline: as §1

jimsonweed = test: Postemergent control of plant species; type: in vivo, Datura stramonium; details: Datura stramonium, post-emergence, 336 h, read-out: percent postemergent control
Outline: as §1

yellow nutsedge = test: Control of aquatic plant species (paddy water); type: in vivo, Cyperus esculentus; details: Cyperus, 216 h, nine days, read-out: Percent control; for pest or weed control at 1000 g/ha: 1.0 Kg/Ha
Outline: as §2

sorghum = test: Preemergent control of plant species; type: in vivo, Sorghum vulgare; details: Sorghum, pre-emergence, 336 h; 0.25 lb/acre; read-out: percent preemergent control
Outline: as §3

cotton = test: Postemergent control of plant species; type: in vivo, Gossypium spp.; details: Gossypium hirsutum, post-emergence, 336 h, read-out: percent postemergent control
Outline: as §1

SMILES	plant injury at 500 ppm (wheat) [%]	pest or weed control at 1000 g/ha (sprangletop) [%]	pest or weed control at 280.212 g/ha (velvetleaf) [%]	plant injury at 280.212 g/ha (sugar beet) [%]	% NH4-N Remaining After 2 Weeks Incubation ([2]; 0.06 ppm) [%]	% NH4-N Remaining After 2 Weeks Incubation ([2]; 0.125 ppm) [%]	% NH4-N Remaining After 2 Weeks Incubation ([2]; 0.25 ppm) [%]	% NH4-N Remaining After 2 Weeks Incubation ([2]; 0.5 ppm) [%]	% NH4-N Remaining After 2 Weeks Incubation ([2]; 1 ppm) [%]	pest or weed control at 1000 g/ha (rice) [%]	plant injury at 500 ppm (corn) [%]	pest or weed control at 1000 g/ha (barnyardgrass) [%]	pest or weed control at 280.212 g/ha (wild oats) [%]	plant injury at 500 ppm (soybean) [%]	pest or weed control at 500 ppm (jimsonweed) [%]	pest or weed control at 1000 g/ha (yellow nutsedge) [%]	plant injury at 280.212 g/ha (sorghum) [%]	% NH4-N Remaining After 2 Weeks Incubation ([2]; 0.01 ppm) [%]	% NH4-N Remaining After 2 Weeks Incubation ([2]; 0.1 ppm) [%]	plant injury at 500 ppm (cotton) [%]	other results
Cc1cc(C)n2nc(S(=O)(=O)Nc3ccccc3F)nc2n1 [Compound 8]	10	0	60	90	4	23	44	59	67	97	20	99	15	75	90	93	–	–	–	–	minimal effective concentration [1]: 50 µg/mL
CCc1cccc(CC)c1NS(=O)(=O)c1nc2nc(C)cc(C)n2n1 [Compound 33]	0	90	0	50	–	–	–	–	77	97	25	97	40	40	40	97	0	8	42	50	% NH4-N Remaining After 2 Weeks Incubation ([2]; 10 ppm): 88%
COC(=O)c1cccc(F)c1NS(=O)(=O)c1nc2nc(C)cc(C)n2n1 [Compound 26]	30	–	95	100	37	45	65	73	79	–	80	–	40	95	100	–	–	–	–	100	pest or weed control at 125 g/ha (sprangletop; 0.125 Kg/Ha): 0%; pest or weed control at 125 g/ha (rice; 0.125 Kg/Ha): 93%; pest or weed control at 125 g/ha (barnyardgrass; 0.125 Kg/Ha): 90%; pest or weed control at 125 g/ha (yellow nutsedge; 0.125 Kg/Ha): 95%
CC(=O)N(c1c(Cl)cccc1Cl)S(=O)(=O)c1nc2nc(C)cc(C)n2n1 [Compound 262]	10	–	100	100	28	–	49	–	75	–	50	–	50	95	100	–	–	–	–	100	% NH4-N Remaining After 2 Weeks Incubation ([2]; 4 ppm): 89%
Cc1cc(C)n2nc(S(=O)(=O)Nc3ccccc3I)nc2n1 [Compound 6]	0	20	60	95	–	–	–	–	78	93	0	99	–	70	30	90	50	15	55	60	% NH4-N Remaining After 2 Weeks Incubation ([2]; 10 ppm): 87%
Cc1cc(C)n2nc(S(=O)(=O)Nc3ccc(Cl)cc3C(F)(F)F)nc2n1 [Compound 34]	0	–	80	90	–	–	–	–	78	–	0	–	0	90	90	–	90	11	51	70	% NH4-N Remaining After 2 Weeks Incubation ([2]; 10 ppm): 90%
Cc1cc(C)n2nc(S(=O)(=O)Nc3ccccc3[N+](=O)[O-])nc2n1 [Compound 12]	0	0	30	98	40	70	74	83	87	70	10	97	0	80	70	95	–	–	–	–	–
